Experiments:
human factor XIa = human factor XIa (Homo sapiens (Human), UniProt P03951); test: Measurement of FXIa inhibition; format: biochemical; conditions: factor XIa from Kordia, substrate Boc-Glu(OBzl)-Ala-Arg-AMC, fluorescence
Procedure: a.1) Measurement of FXIa Inhibition
(§1) The factor XIa inhibition of the substances according to the invention is determined using a biochemical test system which utilizes the reaction of a peptidic factor XIa substrate to determine the enzymatic activity of human factor XIa. Here, factor XIa cleaves from the peptic factor XIa substrate the C-terminal aminomethylcoumarin (AMC), the fluorescence of which is measured. The determinations are carried out in microtitre plates.
1 μl of the diluted substance solutions is placed into each of the wells of white microtitre plates from Greiner (384 wells). […] After 15 min of incubation, the enzyme reaction is started by addition of 20 μl of the factor XIa substrate Boc-Glu(OBzl)-Ala-Arg-AMC dissolved in assay buffer (10 μM in assay buffer) from Bachem, the mixture is incubated at room temperature (22° C.) for 30 min and fluorescence is then measured (excitation: 360 nm, emission: 460 nm). The measured emissions of the test batches with test substance are compared to those of control batches without test substance (only dimethyl sulphoxide instead of test substance in dimethyl sulphoxide), and IC50 values are calculated from the concentration/activity relationships.

human plasma kallikrein = human plasma kallikrein (Homo sapiens (Human), UniProt P03952); test: Determination of the plasma kallikrein activity; format: biochemical; conditions: plasma kallikrein from Kordia, substrate H-Pro-Phe-Arg-AMC, fluorescence
human plasma kallikrein, sequence (P03952 391-638): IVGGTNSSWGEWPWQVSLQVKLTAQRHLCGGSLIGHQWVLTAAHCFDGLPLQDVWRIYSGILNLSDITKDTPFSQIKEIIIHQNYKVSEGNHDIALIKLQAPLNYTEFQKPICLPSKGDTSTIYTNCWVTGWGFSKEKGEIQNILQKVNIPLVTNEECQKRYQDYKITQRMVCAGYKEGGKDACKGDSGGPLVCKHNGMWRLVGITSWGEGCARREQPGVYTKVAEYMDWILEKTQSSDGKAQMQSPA
human plasma kallikrein, sequence (P03952 20-390 partner): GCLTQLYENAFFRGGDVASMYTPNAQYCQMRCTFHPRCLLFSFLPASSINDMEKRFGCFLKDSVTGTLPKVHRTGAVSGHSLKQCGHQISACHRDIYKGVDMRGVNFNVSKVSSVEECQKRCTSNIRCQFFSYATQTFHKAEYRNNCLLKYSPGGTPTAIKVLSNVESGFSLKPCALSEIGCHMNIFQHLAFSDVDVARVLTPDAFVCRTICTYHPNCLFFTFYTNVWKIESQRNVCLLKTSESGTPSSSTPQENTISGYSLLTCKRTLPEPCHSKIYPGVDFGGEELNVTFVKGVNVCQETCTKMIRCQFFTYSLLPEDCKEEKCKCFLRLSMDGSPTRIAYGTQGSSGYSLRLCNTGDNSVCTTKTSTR
Procedure: a.5) Determination of the Plasma Kallikrein Activity
as §1, with “To determine the plasma kallikrein” for “The factor XIa”, “invention,” for “invention is determined using”, “system is used” for “system”, “plasma kallikrein” for “factor XIa”, “plasma kallikrein.” for “factor XIa.”
1 μl of the diluted substance solutions is placed into each of the wells of white microtitre plates from Greiner (384 wells). 20 μl of assay buffer (50 mM Tris/HCl pH 7.4; 100 mM sodium chloride solution; 5 mM of calcium chloride solution; 0.1% of bovine serum albumin) and 20 μl of plasma kallikrein from Kordia (0.6 nM in assay buffer) are then added successively. After 15 min of incubation, the enzyme reaction is started by addition of 20 μl of the substrate H-Pro-Phe-Arg-AMC dissolved in assay buffer (10 μM in assay buffer) from Bachem, the mixture is incubated at room temperature (22° C.) for 30 min and fluorescence is then measured (excitation: 360 nm, emission: 460 nm). The measured emissions of the test batches with test substance are compared to those of control batches without test substance (only dimethyl sulphoxide instead of test substance in dimethyl sulphoxide), and IC50 values are calculated from the concentration/activity relationships.

human factor XIa, sequence (P03951 388-625): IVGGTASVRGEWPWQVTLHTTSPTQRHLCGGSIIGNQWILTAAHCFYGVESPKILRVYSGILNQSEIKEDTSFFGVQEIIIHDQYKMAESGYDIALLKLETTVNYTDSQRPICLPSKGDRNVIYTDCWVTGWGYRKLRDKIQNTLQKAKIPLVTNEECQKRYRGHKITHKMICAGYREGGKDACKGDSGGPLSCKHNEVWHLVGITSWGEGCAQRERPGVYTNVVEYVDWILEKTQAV
human factor XIa, sequence (P03951 19-387 partner): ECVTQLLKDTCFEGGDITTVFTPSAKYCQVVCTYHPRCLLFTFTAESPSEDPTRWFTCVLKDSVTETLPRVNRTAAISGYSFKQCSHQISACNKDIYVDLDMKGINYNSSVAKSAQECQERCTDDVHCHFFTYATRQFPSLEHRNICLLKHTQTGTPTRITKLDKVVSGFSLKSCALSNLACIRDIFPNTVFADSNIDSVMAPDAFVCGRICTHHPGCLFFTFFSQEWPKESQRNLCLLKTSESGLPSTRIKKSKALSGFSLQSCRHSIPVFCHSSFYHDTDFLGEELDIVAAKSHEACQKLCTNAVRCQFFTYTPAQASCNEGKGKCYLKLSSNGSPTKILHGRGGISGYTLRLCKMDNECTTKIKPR

## CO[C@H]1CC[C@H](CC(C(=O)Nc2ccc(C(=O)O)cc2)n2cc3c(cc2=O)-c2cc(Cl)ccc2CC2(CC2)NC3=O)CC1 (stereo partly drawn) [Example 25, 4-{[2-(11′-Chloro-2′,5′-dioxo-2′,5′,6′,8′-tetrahydro-3′H-spiro[cyclopropane-1,7′-pyrido[3,4-e][3]benzazocine]-3′-yl)-3-(trans-4-methoxycyclohexyl)propanoyl]amino}benzoic acid]
Human factor XIa
  IC50: 2.5 nM
Human plasma kallikrein
  IC50: 370 nM

## COCCC(C(=O)Nc1ccn2nccc2c1)n1cc2c(cc1=O)-c1cc(Cl)ccc1CC1(CC1)NC2=O (stereo not shown) [Example 16, 2-(11′-Chloro-2′,5′-dioxo-2′,5′,6′,8′-tetrahydro-3′H-spiro[cyclopropane-1,7′-pyrido[3,4-e][3]benzazocine]-3′-yl)-4-methoxy-N-(pyrazolo[1,5-a]pyridin-5-yl)butanamide]
Human factor XIa
  IC50: 11 nM
Human plasma kallikrein
  IC50: 210 nM

## COCCC(C(=O)Nc1ccc2[nH]ncc2c1)n1cc2c(cc1=O)-c1cc(Cl)ccc1CC1(CC1)NC2=O (stereo not shown) [Example 18, 2-(11′-Chloro-2′,5′-dioxo-2′,5′,6′,8′-tetrahydro-3′H-spiro[cyclopropane-1,7′-pyrido[3,4-e][3]benzazocine]-3′-yl)-N-(1H-indazol-5-yl)-4-methoxybutanamide]
Human factor XIa
  IC50: 21 nM
Human plasma kallikrein
  IC50: 330 nM

## CCC(C(=O)Nc1ccc(C(=O)O)cc1)n1cc2c(cc1=O)-c1cc(Cl)ccc1CNC2=O (stereo not shown) [Example 1, 4-{[2-(10-Chloro-2,5-dioxo-2,5,6,7-tetrahydro-3H-pyrido[3,4-d][2]benzazepin-3-yl)butanoyl]amino}benzoic acid]
Human factor XIa
  IC50: 420 nM
Human plasma kallikrein
  IC50: > 10000 nM

## COCCC(C(=O)Nc1ccc(C(=O)O)cc1)n1cc2c(cc1=O)-c1cc(Cl)ccc1CC(CF)NC2=O (stereo not shown) [Example 33, 4-({2-[11-Chloro-7-(fluoromethyl)-2,5-dioxo-5,6,7,8-tetrahydropyrido[3,4-e][3]benzazocin-3(2H)-yl]-4-methoxybutanoyl}amino)benzoic acid]
Human factor XIa
  IC50: 1.2 nM
Human plasma kallikrein
  IC50: 97 nM

## CO[C@H]1CC[C@H](CC(C(=O)Nc2ccc3[nH]c(=O)[nH]c3c2)n2cc3c(cc2=O)-c2cc(Cl)ccc2CC2(CC2)NC3=O)CC1 (stereo partly drawn) [Example 27, 2-(11′-Chloro-2′,5′-dioxo-2′,5′,6′,8′-tetrahydro-3′H-spiro[cyclopropane-1,7′-pyrido[3,4-e][3]benzazocine]-3′-yl)-3-(trans-4-methoxycyclohexyl)-N-(2-oxo-2,3-dihydro-1H-benzimidazol-5-yl)propanamide]
Human factor XIa
  IC50: 18 nM
Human plasma kallikrein
  IC50: 250 nM

## CC(C)CC(C(=O)Nc1ccc(C(=O)O)cc1)n1cc2c(cc1=O)-c1cc(Cl)ccc1CCNC2=O (stereo not shown) [Example 8, 4-{[2-(11-Chloro-2,5-dioxo-5,6,7,8-tetrahydropyrido[3,4-e][3]benzazocin-3(2H)-yl)-4-methylpentanoyl]amino}benzoic acid]
Human factor XIa
  IC50: 36 nM
Human plasma kallikrein
  IC50: 680 nM

## COCCC(C(=O)Nc1ccc(C(=O)O)nc1)n1cc2c(cc1=O)-c1cc(Cl)ccc1CC1(CC1)NC2=O (stereo not shown) [Example 20, 5-{[2-(11′-Chloro-2′,5′-dioxo-2′,5′,6′,8′-tetrahydro-3′H-spiro[cyclopropane-1,7′-pyrido[3,4-e][3]benzazocine]-3′-yl)-4-methoxybutanoyl]amino}pyridine-2-carboxylic acid]
Human factor XIa
  IC50: 47 nM
Human plasma kallikrein
  IC50: 4500 nM

## O=C(Cn1cc2c(cc1=O)-c1cc(Cl)ccc1CCNC2=O)Nc1ccc(-c2noc(=O)[nH]2)cc1 [Example 5, 2-(11-Chloro-2,5-dioxo-5,6,7,8-tetrahydropyrido[3,4-e][3]benzazocin-3(2H)-yl)-N-[4-(5-oxo-4,5-dihydro-1,2,4-oxadiazol-3-yl)phenyl]acetamide]
Human factor XIa
  IC50: 350 nM
Human plasma kallikrein
  IC50: 8300 nM

## Cn1cc2cc(NC(=O)C(Cc3ccccc3)n3cc4c(cc3=O)-c3cc(Cl)ccc3CC3(CC3)NC4=O)ccc2n1 (stereo not shown) [Example 30, 2-(11′-Chloro-2′,5′-dioxo-2′,5′,6′,8′-tetrahydro-3′H-spiro[cyclopropane-1,7′-pyrido[3,4-e][3]benzazocine]-3′-yl)-N-(2-methyl-2H-indazol-5-yl)-3-phenylpropanamide]
Human factor XIa
  IC50: 4.5 nM
Human plasma kallikrein
  IC50: 45 nM

## CCC(C(=O)Nc1ccc(C(=O)O)cc1)n1cc2c(cc1=O)-c1cc(Cl)ccc1CC1(CC1)NC2=O (stereo not shown) [Example 10, 4-{[2-(11′-Chloro-2′,5′-dioxo-2′,5′,6′,8′-tetrahydro-3′H-spiro[cyclopropane-1,7′-pyrido[3,4-e][3]benzazocine]-3′-yl)butanoyl]amino}benzoic acid]
Human factor XIa
  IC50: 7.7 nM
Human plasma kallikrein
  IC50: 2100 nM

## CC(C)CC(C(=O)Nc1ccc(-c2noc(=O)[nH]2)cc1)n1cc2c(cc1=O)-c1cc(Cl)ccc1CCNC2=O (stereo not shown) [Example 9, 2-(11-Chloro-2,5-dioxo-5,6,7,8-tetrahydropyrido[3,4-e][3]benzazocin-3(2H)-yl)-4-methyl-N-[4-(5-oxo-4,5-dihydro-1,2,4-oxadiazol-3-yl)phenyl]pentanamide]
Human factor XIa
  IC50: 140 nM
Human plasma kallikrein
  IC50: 3800 nM

## CCC(C(=O)Nc1ccc(-c2noc(=O)[nH]2)cc1)n1cc2c(cc1=O)-c1cc(Cl)ccc1CC1(CC1)NC2=O (stereo not shown) [Example 11, 2-(11′-Chloro-2′,5′-dioxo-2′,5′,6′,8′-tetrahydro-3′H-spiro[cyclopropane-1,7′-pyrido[3,4-e][3]benzazocine]-3′-yl)-N-[4-(5-oxo-4,5-dihydro-1,2,4-oxadiazol-3-yl)phenyl]butanamide]
Human factor XIa
  IC50: 16 nM
Human plasma kallikrein
  IC50: 1700 nM

## COCCC(C(=O)Nc1ccc(C(=O)O)cc1)n1cc2c(cc1=O)-c1cc(Cl)ccc1CC1(CC1)NC2=O (stereo not shown) [Example 12, 4-{[2-(11′-Chloro-2′,5′-dioxo-2′,5′,6′,8′-tetrahydro-3′H-spiro[cyclopropane-1,7′-pyrido[3,4-e][3]benzazocine]-3′-yl)-4-methoxybutanoyl]amino}benzoic acid]
Human factor XIa
  IC50: 1.9 nM
Human plasma kallikrein
  IC50: 390 nM

## COCCC(C(=O)Nc1ccc2nccn2c1)n1cc2c(cc1=O)-c1cc(Cl)ccc1CC1(CC1)NC2=O (stereo not shown) [Example 17, 2-(11′-Chloro-2′,5′-dioxo-2′,5′,6′,8′-tetrahydro-3′H-spiro[cyclopropane-1,7′-pyrido[3,4-e][3]benzazocine]-3′-yl)-N-(imidazo[1,2-a]pyridin-6-yl)-4-methoxybutanamide]
Human factor XIa
  IC50: 44 nM
Human plasma kallikrein
  IC50: 1200 nM

## COCCC(C(=O)Nc1ccc(C(=O)O)s1)n1cc2c(cc1=O)-c1cc(Cl)ccc1CC1(CC1)NC2=O (stereo not shown) [Example 22, 5-{[2-(11′-Chloro-2′,5′-dioxo-2′,5′,6′,8′-tetrahydro-3′H-spiro[cyclopropane-1,7′-pyrido[3,4-e][3]benzazocine]-3′-yl)-4-methoxybutanoyl]amino}thiophene-2-carboxylic acid]
Human factor XIa
  IC50: 4 nM
Human plasma kallikrein
  IC50: 340 nM

## CCC(C(=O)Nc1ccc(C(=O)O)cc1)n1cc2c(cc1=O)-c1cc(Cl)ccc1C1(CC1)NC2=O (stereo not shown) [Example 3, 4-{[2-(10′-Chloro-2′,5′-dioxo-5′,6′-dihydrospiro[cyclopropane-1,7′-pyrido[3,4-d][2]benzazepine]-3′(2′H)-yl)butanoyl]amino}benzoic acid]
Human factor XIa
  IC50: 180 nM
Human plasma kallikrein
  IC50: > 50000 nM

## CCC(C(=O)Nc1ccc(-c2noc(=O)[nH]2)cc1)n1cc2c(cc1=O)-c1cc(Cl)ccc1CCNC2=O (stereo not shown) [Example 7, 2-(11-Chloro-2,5-dioxo-5,6,7,8-tetrahydropyrido[3,4-e][3]benzazocin-3(2H)-yl)-N-[4-(5-oxo-4,5-dihydro-1,2,4-oxadiazol-3-yl)phenyl]butanamide]
Human factor XIa
  IC50: 44 nM
Human plasma kallikrein
  IC50: 3300 nM

## COCCC(C(=O)Nc1ccc(C(N)=O)nc1)n1cc2c(cc1=O)-c1cc(Cl)ccc1CC1(CC1)NC2=O (stereo not shown) [Example 21, 5-{[2-(11′-Chloro-2′,5′-dioxo-2′,5′,6′,8′-tetrahydro-3′H-spiro[cyclopropane-1,7′-pyrido[3,4-e][3]benzazocine]-3′-yl)-4-methoxybutanoyl]amino}pyridine-2-carboxamide]
Human factor XIa
  IC50: 34 nM
Human plasma kallikrein
  IC50: 910 nM

## COCCC(C(=O)Nc1cc(C(=O)O)cs1)n1cc2c(cc1=O)-c1cc(Cl)ccc1CC1(CC1)NC2=O (stereo not shown) [Example 23, 5-{[2-(11′-Chloro-2′,5′-dioxo-2′,5′,6′,8′-tetrahydro-3′H-spiro[cyclopropane-1,7′-pyrido[3,4-e][3]benzazocine]-3′-yl)-4-methoxybutanoyl]amino}thiophene-3-carboxylic acid]
Human factor XIa
  IC50: 100 nM
Human plasma kallikrein
  IC50: 3900 nM

From patent publication US10138236B2, “Factor xia-inhibiting pyridobenzazepine and pyridobenzazocine derivatives” (BAYER PHARMA AKTIENGESELLSCHAFT, priority 2014, dated 2018)
